Source: publication PMC6084407, “Structural Basis of Phosphatidic Acid Sensing by APH in Apicomplexan Parasites” (Structure(London, England:1993), 2018)

Columns and labels:
PfAPH106-235 [1] = target: T1, PfAPH106-235 (Plasmodium falciparum, UniProt Q8I1U2, K138A/K140A); assay: biochemical
T1 construct: gene PF3D7_0414600

PfAPH106-235 [2] = target: T2, PfAPH106-235 (Plasmodium falciparum, UniProt Q8I1U2, F144A/I143A); assay: biochemical
T2 construct: gene PF3D7_0414600

PfAPH106-235 [3] = target: T3, PfAPH106-235 (Plasmodium falciparum, UniProt Q8I1U2, K138A); assay: biochemical
T3 construct: gene PF3D7_0414600

PfAPH106-235 [4] = target: T4, PfAPH106-235 (Plasmodium falciparum, UniProt Q8I1U2, H145A); assay: biochemical
T4 construct: gene PF3D7_0414600

PfAPH106-235 [5] = target: T5, PfAPH106-235 (Plasmodium falciparum, UniProt Q8I1U2, K140A); assay: biochemical
T5 construct: gene PF3D7_0414600

PfAPH106-235 [6] = target: T6, PfAPH106-235 (Plasmodium falciparum, UniProt Q8I1U2); assay: 1D 1H NMR LUV titration; format: binding
T6 construct: gene PF3D7_0414600; C-terminal PH domain, residues 106-235; codon-optimised gene, pNIC28a-Bsa4, E. coli BL21(DE3); N-terminal His6 tag cut by TEV

TgAPH99-229 = target: T7, TgAPH99-229 (Toxoplasma gondii, UniProt A0A125YY72); assay: 1H-15N HSQC NMR titration; format: binding; settings: free short-chain lipid; 250 μM protein; buffer pH 7
T7 construct: gene TGME49_249970; C-terminal PH domain, residues 99-229; codon-optimised gene, pNIC28a-Bsa4, E. coli BL21(DE3); N-terminal His6 tag cut by TEV

PfAPH106-235 [7] = target: T6, PfAPH106-235; assay: 1H-15N HSQC NMR titration; format: binding
Description: 1H-15N HSQC NMR titration on PfAPH106-235 | binding to the short-chain PA is in the fast exchange regime on the NMR timescale

T6 sequence (Q8I1U2 entry or part of it): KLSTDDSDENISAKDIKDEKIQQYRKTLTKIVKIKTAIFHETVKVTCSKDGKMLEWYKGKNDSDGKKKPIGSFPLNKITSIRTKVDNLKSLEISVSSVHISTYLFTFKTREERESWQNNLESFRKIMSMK
T2 sequence (Q8I1U2 106-235 F144A/I143A): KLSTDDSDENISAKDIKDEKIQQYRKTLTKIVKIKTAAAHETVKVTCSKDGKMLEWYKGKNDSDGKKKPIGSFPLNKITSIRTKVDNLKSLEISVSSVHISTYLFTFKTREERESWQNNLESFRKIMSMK
T3 sequence (Q8I1U2 106-235 K138A): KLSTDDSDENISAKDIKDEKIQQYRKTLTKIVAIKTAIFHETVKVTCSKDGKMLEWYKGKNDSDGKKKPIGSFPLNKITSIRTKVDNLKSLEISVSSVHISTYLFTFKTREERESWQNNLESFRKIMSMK
T1 sequence (Q8I1U2 106-235 K138A/K140A): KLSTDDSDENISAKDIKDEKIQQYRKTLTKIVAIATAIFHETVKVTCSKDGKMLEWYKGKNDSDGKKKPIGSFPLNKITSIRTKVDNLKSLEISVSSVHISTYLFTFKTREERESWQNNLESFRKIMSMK
T4 sequence (Q8I1U2 106-235 H145A): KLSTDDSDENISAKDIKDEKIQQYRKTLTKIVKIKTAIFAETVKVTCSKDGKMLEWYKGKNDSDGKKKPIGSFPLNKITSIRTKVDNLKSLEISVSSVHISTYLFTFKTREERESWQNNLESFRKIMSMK
T7 sequence (A0A125YY72 entry or part of it): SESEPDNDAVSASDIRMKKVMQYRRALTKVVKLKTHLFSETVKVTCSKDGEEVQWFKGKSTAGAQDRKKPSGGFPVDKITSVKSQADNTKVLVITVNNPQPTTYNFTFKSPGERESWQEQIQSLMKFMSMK
T5 sequence (Q8I1U2 106-235 K140A): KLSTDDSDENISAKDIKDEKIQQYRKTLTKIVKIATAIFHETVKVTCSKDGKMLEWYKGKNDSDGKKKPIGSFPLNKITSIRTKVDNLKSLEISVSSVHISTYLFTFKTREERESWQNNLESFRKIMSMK

Compound `CCCCCCCC/C=C\CCCCCCCC(=O)O[C@H](COC(=O)CCCCCCCCCCCCCCC)COP(=O)(O)O` [POPA, 1-palmitoyl-2-oleoyl-sn-glycero-3-phosphate] has a Kd (PfAPH106-235 [1]) of 1490 µM, a Kd (PfAPH106-235 [2]) of 1320 µM and a Kd (PfAPH106-235 [3]) of 959 ± 35 µM. It also gave a Kd (PfAPH106-235 [4]) of 499 ± 9 µM, a Kd (PfAPH106-235 [5]) of 604 ± 29 µM and a Kd (PfAPH106-235 [6]) of 275 ± 13 µM.

`CCCCCCCC/C=C\CCCCCCCC(=O)O[C@H](COC(=O)CCCCCCCCCCCCCCC)COP(=O)([O-])OCC[N+](C)(C)C` [POPC, 1-palmitoyl-2-oleoyl-sn-glycero-3-phosphocholine] was tested, and the Kd (PfAPH106-235 [6]) was 1070 ± 33 µM.

`CCCCCCCC/C=C\CCCCCCCC(=O)O[C@H](COC(=O)CCCCCCCCCCCCCCC)COP(=O)(O)OC[C@H](N)C(=O)O` [POPS, 1-palmitoyl-2-oleoyl-sn-glycero-3-phospho-L-serine] showed a Kd (PfAPH106-235 [6]) of 850 ± 13 µM.

`CCCCCC(=O)OC[C@H](COP(=O)(O)O)OC(=O)CCCCC` [short-chain PA, 1,2-dihexanoyl-sn-glycero-3-phosphate] was tested, and the “1H-15N HSQC NMR titration” value (TgAPH99-229) was “Binding experiments with recombinant APHs and short-chain PA enabled mapping” and the Kd (PfAPH106-235 [7]) was > 50 µM.
